Results as given in PubChem BioAssay (NCI).
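These data come from cells grown in 96-well plates and exposed to compound for 48 hours at five concentrations. At the TGI there is no net growth.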

Legend:
Assay in all cases: inhibition of tumour cell growth, NCI panel, 48 h
SN12C renal = test system: SN12C renal
UO-31 renal = test system: UO-31 renal
HOP-62 NSCLC = test system: HOP-62 NSCLC
CCRF-CEM leukemia = test system: CCRF-CEM leukemia
SNB-75 CNS = test system: SNB-75 CNS
MDA-MB-435 = test system: MDA-MB-435
MOLT-4 leukemia = test system: MOLT-4 leukemia
M14 melanoma = test system: M14 melanoma
OVCAR-8 ovarian = test system: OVCAR-8 ovarian
SK-MEL-2 melanoma = test system: SK-MEL-2 melanoma
COLO 205 colon = test system: COLO 205 colon
A498 renal = test system: A498 renal
NCI-H460 lung = test system: NCI-H460 lung
PC-3 prostate = test system: PC-3 prostate
SW-620 colon = test system: SW-620 colon
SK-MEL-5 melanoma = test system: SK-MEL-5 melanoma
K-562 leukemia = test system: K-562 leukemia
MALME-3M melanoma = test system: MALME-3M melanoma
SF-539 CNS = test system: SF-539 CNS
UACC-257 melanoma = test system: UACC-257 melanoma

| Compound | TGI (SN12C renal) [µM] | TGI (UO-31 renal) [µM] | TGI (HOP-62 NSCLC) [µM] | TGI (CCRF-CEM leukemia) [µM] | TGI (SNB-75 CNS) [µM] | TGI (MDA-MB-435) [µM] | TGI (MOLT-4 leukemia) [µM] | TGI (M14 melanoma) [µM] | TGI (OVCAR-8 ovarian) [µM] | TGI (SK-MEL-2 melanoma) [µM] | TGI (COLO 205 colon) [µM] | TGI (A498 renal) [µM] | TGI (NCI-H460 lung) [µM] | TGI (PC-3 prostate) [µM] | TGI (SW-620 colon) [µM] | TGI (SK-MEL-5 melanoma) [µM] | TGI (K-562 leukemia) [µM] | TGI (MALME-3M melanoma) [µM] | TGI (SF-539 CNS) [µM] | TGI (UACC-257 melanoma) [µM] |
| --- | --- | --- | --- | --- | --- | --- | --- | --- | --- | --- | --- | --- | --- | --- | --- | --- | --- | --- | --- | --- |
| O=C(CCc1cc(O)ccc1O)OCCc1ccccc1 | 44.9 | 18.7 | > 100 | 1.94 | > 100 | 24.5 | > 21 | > 61.6 | > 57.6 | > 100 | 22.6 | > 100 | > 100 | 18.5 | 42.2 | > 55.6 | 30.9 | 23.5 | 14.9 | 28.9 |
| O=C1C=CC(=O)c2c1ccc1c3ccccc3n(-c3cccc([N+](=O)[O-])c3)c21 | > 10 | > 10 | > 10 | 0.82 | > 10 | 4.37 | 1.07 | 3.86 | > 8.25 | > 10 | 3.21 | > 10 | > 10 | > 10 | 2.79 | > 10 | 1.45 | 4 | > 6.82 | 7.38 |
| COc1ccc(-c2csc(Cc3nc4ccccc4c(=O)n3-c3ccc(Cl)cc3)n2)cc1 | – | > 100 | > 100 | > 100 | > 100 | > 100 | 67.4 | 65.1 | > 100 | 35.3 | > 100 | > 100 | > 100 | > 100 | > 100 | 41.1 | 41.8 | > 100 | – | > 100 |
| O=C1c2cccc3cccc(c23)C(=O)N1CCCNCCCNCCCCNCCCNCCCN1C(=O)c2cccc3cccc(c23)C1=O | 16.4 | 30.4 | 27.3 | 3.29 | 12.5 | 10.1 | 2.84 | 16.2 | 40 | 16.8 | – | 25.2 | 14.1 | 13.4 | 14.9 | 41.1 | 16.5 | 7.03 | 23.7 | 22.6 |
| Cc1c(O)c(OC2OC(CO)C(O)C(O)C2O)cc2c1CC[C@@H]1C2(C)C(=O)C[C@]2(C)[C@@H]([C@@](C)(O)C(=O)CCC(C)(C)O)[C@H](O)C[C@@]12C (stereo not given in full) | > 100 | > 100 | > 100 | > 100 | > 100 | > 100 | > 100 | > 100 | > 100 | > 100 | > 100 | > 100 | > 100 | > 100 | > 100 | > 100 | > 100 | > 100 | > 100 | > 100 |
| CN1CCc2c(sc3ncn(C)c(=N)c23)C1 | > 100 | – | > 100 | > 100 | > 100 | > 100 | > 100 | > 100 | > 100 | > 100 | > 100 | > 100 | > 100 | > 100 | > 100 | > 100 | > 100 | > 100 | > 100 | > 100 |
| COc1ccc2c(c1)nc1n2C(c2c(Cl)cccc2Cl)SC1 (stereo not given) | > 100 | > 100 | > 71 | > 100 | > 75.1 | > 23.6 | > 100 | > 43.7 | > 100 | > 74 | > 100 | > 100 | > 100 | > 82.3 | > 53.8 | > 100 | > 100 | 14.5 | > 100 | > 100 |
| CC(=O)Oc1ccc2c(c1)c1c(=O)oc(C)nc1n2Cc1ccccc1 | > 100 | 13.8 | > 100 | > 100 | > 87.7 | 99.4 | > 100 | > 100 | > 100 | > 71.6 | > 100 | > 74.6 | > 100 | > 100 | > 100 | > 100 | > 100 | > 100 | > 100 | > 100 |
| CN(C)CC1CCC/C(=C\c2ccc(Cl)cc2)C1=O (stereo not given) | 8.55 | 4.52 | 34.2 | 3.39 | 14.9 | 9.22 | > 21.7 | 6.15 | 17.4 | 2.05 | 4.82 | 31.1 | 43.3 | 8 | 4.08 | 12.3 | 4.89 | 4.76 | 29.1 | 12.3 |
| O=S1(=O)Cc2ccc3c4c2-c2c(ccc5ccc(c-4c25)CS(=O)(=O)C3)C1 | > 100 | > 100 | > 100 | – | > 100 | > 100 | > 100 | > 100 | > 100 | > 100 | – | > 100 | > 100 | > 100 | > 100 | – | > 100 | > 100 | > 100 | > 100 |
| Cc1ccccc1N/C(=C(/C(Cl)=C(Cl)Cl)[N+](=O)[O-])n1nnc2ccccc21 | 31.1 | 31.8 | 30.6 | > 100 | 34.2 | 30.1 | > 100 | 64.9 | – | 33 | 29.1 | 40.4 | 28.5 | 80.7 | 29.4 | – | > 100 | 27.9 | 39.1 | > 100 |
| CC(C(=O)OCc1ccccc1)(c1ccco1)N1C(=O)OC(c2ccccc2)C1c1ccccc1 (stereo not given) | > 100 | > 100 | > 100 | > 100 | > 100 | > 100 | > 100 | > 100 | > 100 | > 100 | > 100 | > 100 | > 100 | > 100 | > 100 | > 100 | > 100 | > 100 | > 100 | > 100 |
| COC(=O)[C@]12CCC(C)(C)C[C@H]1[C@H]1C(=O)C=C3[C@@]4(C)C=C(C#N)C(=O)C(C)(C)[C@@H]4CC[C@@]3(C)[C@]1(C)CC2 | 0.187 | 1.15 | 0.0547 | > 100 | 3.62 | 0.0585 | 1.56 | 0.0876 | 0.0414 | 0.187 | 0.122 | 0.114 | > 13.5 | 0.469 | 0.946 | 0.109 | > 27.9 | 0.143 | 0.103 | 0.0795 |
| CCOC(=O)C1(C/C=C/CBr)CCc2ccccc2C1=O (stereo not given) | 34.8 | 30.9 | 30.3 | > 100 | 22.6 | 31 | > 100 | 28.2 | 36.7 | 37.7 | 42.6 | 38 | – | 43 | 30.3 | 25.2 | – | 41.3 | 36.2 | 34.8 |
| [N-]=[N+]=NC1C(O)C(CO)OC1n1ccc(=O)[nH]c1=O (stereo not given) | > 875 | > 875 | > 875 | > 875 | > 875 | > 875 | > 875 | > 875 | > 875 | > 875 | > 875 | > 875 | > 875 | > 875 | > 875 | > 875 | > 875 | > 875 | > 875 | > 875 |
| CC(=O)O[C@H]1CC[C@@]2(C)C(=CC[C@@H]3[C@@H]2CC[C@]2(C)NC(=O)/C(=C\c4ccccc4)C[C@@H]32)C1 | 42 | 33.1 | 30.1 | 55.4 | 44.3 | 33.2 | > 100 | 30.5 | 45 | 39.8 | 38.5 | 27.6 | 95.3 | 44.5 | 41.9 | 23.2 | > 100 | 36.2 | 31.1 | 43.9 |
| Nc1nc(Cl)c(N)c(NCC2(CO)CCCC2)n1 | > 100 | > 100 | > 100 | > 100 | > 100 | > 100 | > 100 | – | > 100 | > 100 | – | > 100 | > 100 | > 100 | > 100 | > 100 | > 100 | > 100 | > 100 | > 100 |
| O=C(N[C@@H](c1ccccc1)[C@@H](O)C(=O)OCc1ccc([N+](=O)[O-])cc1)c1ccccc1 | > 100 | > 100 | > 100 | > 100 | > 100 | > 100 | 76 | – | > 100 | > 100 | > 100 | > 100 | > 100 | > 100 | > 100 | > 100 | > 100 | > 100 | > 100 | > 100 |
| CN(C)c1ccc(/C=N\NC(=O)Nc2cccc3ccccc23)cc1 | 31.4 | 51.6 | 33.1 | > 100 | 32.3 | 48.3 | > 100 | > 100 | > 100 | 35.7 | > 100 | 64.8 | 31.8 | 35.5 | > 100 | 18.6 | – | 27.4 | 21.5 | 34.6 |
| O=c1cc(CO)oc(C(O)c2ccccc2)c1O (stereo not given) | > 100 | > 100 | > 100 | – | > 100 | > 100 | > 100 | > 100 | > 100 | > 100 | > 100 | > 100 | > 100 | > 100 | > 100 | > 100 | – | > 100 | > 100 | > 100 |
| CCCCCCOc1ccc(Nc2c(O)c3c(c(O)c2Cl)C(=O)C=CC3=O)cc1 | 4.54 | > 5.81 | > 8.71 | 8.61 | > 10 | 3.9 | > 6.98 | > 6.68 | > 5.31 | 7.05 | 4.15 | > 10 | 6.52 | > 10 | 4.73 | 3.02 | 8.92 | 4.04 | > 6.06 | > 8.89 |
| Nc1nc(NCC2(CO)CC2)cc(=O)[nH]1 | > 100 | > 100 | > 100 | > 100 | > 100 | > 100 | > 100 | > 100 | > 100 | > 100 | > 100 | > 100 | > 100 | > 100 | > 100 | > 100 | > 100 | > 100 | – | > 100 |
| O=C(Oc1ccccc1)N1c2ccccc2[C@@]23O[C@]24CCC[C@H]3C#C/C=C\C#C[C@H]14 | 26.6 | 26.5 | 25.6 | > 100 | 23.3 | 36.7 | > 100 | 30.6 | 24.8 | 25.5 | 28 | 27.6 | 11.4 | 23.8 | 23.5 | – | > 100 | 22.1 | 45.8 | 28.7 |
| CCOC(=O)/C=C/[C@H](O[Si](CC)(CC)CC)C(C)(C)C | > 100 | > 100 | > 100 | 48.6 | > 100 | > 100 | > 100 | – | > 100 | 80.6 | > 100 | > 100 | > 100 | > 100 | > 100 | > 100 | > 100 | > 100 | > 100 | > 100 |
